For orientation: IC50 means the concentration that inhibits the measured activity by half. A lower IC50 goes with greater potency in that assay. One may read the AUC(0-t) as exposure summed from dosing to a finite time, without extrapolation to infinity. A low value points to less exposure. One may read the Cmax as the peak of the concentration-time curve. The term Tmax denotes the time at which the peak concentration occurs. In general, half-life refers to how long it takes for the measured level to halve. Low values mean rapid decline, high ones slow decline.

Consider 19 compounds from EP4711365A1 (Shanghai Hansoh Biomedical Co., Ltd., priority 2023, dated 2024).

In series [1] the target is T1, human IL-17RA and IL-17A proteins (Homo sapiens, UniProt Q16552).
T1 sequence (Q16552 24-155): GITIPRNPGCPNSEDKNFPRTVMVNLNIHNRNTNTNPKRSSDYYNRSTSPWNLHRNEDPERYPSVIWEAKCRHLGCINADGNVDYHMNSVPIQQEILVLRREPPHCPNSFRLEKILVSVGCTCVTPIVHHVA
The experiment in a line: Competitive ELISA: blocking of binding between human IL-17RA and IL-17A. The note with it: coated IL-17A, IL-17RA 5 nM. On the procedure:
Test example 1 Assay for competitive binding effect between compounds of the present invention and human IL-17 receptor for ligand
1. Experimental objective: to quantitatively determine the blocking effect of the compound on the binding between human IL-17RA and IL-17A proteins using competitive ELISA under in vitro conditions. 2. Experimental instruments and reagents: 2.1 Instruments:
2.2 Reagents: 3. Experimental method: IL-17A at 0.0625 µg/mL was coated in a 96-well plate at 4°C overnight at 100 µL per well. The plate was washed with PBST (300 µL/well x 4), and then blocked at 24°C for 2 h by adding 300 µL of ELISA Blocker blocking buffer to each well. The plate was further washed under the same conditions. 80 µL of PBS solution containing 1% BSA and 10 µL of 10× test compound solution were added to each well and mixed uniformly, and then the mixture was incubated at room temperature for 1 hour. After that, 10 µL of IL-17RA solution was added to a final concentration of 5 nM and mixed uniformly, and then the mixture was incubated at 24°C for 1 h. The corresponding concentration and volume of DMSO solution without compounds was added to positive control wells, and 1% BSA solution without IL-17RA was added to negative control wells.
After the plate was washed four times, 100 µL of the anti-Fc tag HRP-conjugated antibody was added, and the mixture was incubated at 37°C for 1 h. After the plate was washed four times, 100 µL of TMB substrate was added to each well, and the mixture was incubated at 37°C in the dark. After colour development was completed, the reaction was terminated by adding 100 µL of stop solution to each well, and the absorbance was measured at wavelengths of 450 nm and 570 nm using a microplate reader.
• 1) Inhibition rate (%): The original data (OD450-OD570) was calculated according to the following formula to obtain the inhibition rate. Inhibition rate% = [(average value of positive control wells - value of sample wells)/(average value of positive control wells - average value of negative control wells)] × 100, where the positive control wells are wells without compounds, and the negative control wells are wells without IL-17RA protein solution. • 2) Curve fitting: Log(inhibitor) vs. response -- Variable slope (four parameters) in GraphPad Prism 8 was used for fitting equation analysis of the compound concentration and the corresponding inhibition rate, and the curve was fitted to obtain the IC50 value of the compound. The fitting calculation equation was Y = Bottom + (Top - Bottom) / (1 + 10^((LogIC50 - X) * HillSlope)).
(ELISA stands for enzyme-linked immunosorbent assay.)

Series [2] relates to Groα secretion by HT-29 cells. The experiment in a line: Inhibition of Groα secretion by HT-29 cells stimulated with IL-17A (ELISA). Conditions: Homo sapiens, IL-17A 30 ng/ml, 48 hours, Groα in supernatant. Type of series: cell-based, Human. In a few lines:
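HT-29 cells (10,000/well) were cultured overnight, then given compound pre-mixed 30 min with IL-17A (final 30 ng/ml) and incubated 48 hours at 37°C. Groα in supernatant was measured by ELISA at 450 nm; inhibition relative to IL-17A-stimulated control, IC50 from four-parameter fit.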

Series [3] is described as follows: Pharmacokinetic assay in Wistar rats, oral. The note with it: rat, plasma, 30 mg/kg.
Procedure: Experimental objective: to study the pharmacokinetic behaviours of the compounds of the present invention in the body (plasma) of Wistar rats as test animals after oral administration at a dose of 30 mg/kg. • 2. Experimental scheme • 2.1 Test drugs: the examples of the present invention, prepared in house. • 2.2 Test animals: Wistar rats (female, 3 rats per group), from Beijing Vital River Laboratory Animal Technology Co., Ltd., with the animal production license no.
Solutol HS15 was melted in a water bath at 50-60°C, and then 50 mL of the melted Solutol HS15 was added to 450 mL of ultrapure water. The mixture was stirred and sonicated to obtain 500 mL of 10% Solutol HS15 solution. The compound was weighed, and according to the total administration volume, 30% PEG solution was first added. The mixture was shaken uniformly and sonicated until a clear solution was obtained. Subsequently, 70% (10% Solutol) in water was added, resulting in a colourless and clear solution with a concentration of 3.0 mg/mL.
2.4 Administration scheme: After overnight fasting, 3 female Wistar rats per group were administered orally (PO) at a dose of 30 mg/kg with an administration volume of 10 mL/kg.
• 1) To 50 uL of plasma sample was added 250 uL of acetonitrile for precipitation, and the mixture was mixed and then centrifuged at 4°C at 4000 rpm for 20 minutes. • 2) The treated supernatant solution was taken and subjected to LC/MS/MS to analyse the concentration of the test compounds. LC/MS/MS analysis instrument: AB Sciex API-4000 Qtrap-Shimadzu Controller-CBM20A.
• Chromatographic column: Waters Xbridge C18 3.5 um 2.1*50 mm • Mobile phase: solution A: 0.1% formic acid in water, and solution B: 0.1% formic acid in acetonitrile • Flow rate: 0.6 mL/min • Elution time: 0-3.5 minutes, with eluents as follows:

As to `CCc1nonc1C(=O)N[C@H](C(=O)Nc1ncc([C@@H](COC)N2CC(F)(F)CNC2=O)s1)[C@H]1CC[C@H](C)CC1` [Example 556], the IC50 in series [1] is 1.8 nM. The compound also had a half-inhibitory concentration (IC50) in series [2] of 4.6 nM. Moreover, in series [3], the area under the curve AUC(0-t) is 22100 ng·h/mL, the Cmax is 2390 ng/mL, the Tmax came out at 2 h and the half-life is 2.3 h.
For `C[C@@H]1CN(C[C@H](c2cnc(NC(=O)[C@@H](NC(=O)C3(F)CC3)[C@H]3CC[C@H](C)CC3)s2)N2CC(F)(F)CNC2=O)C[C@@H](C)O1` [Example 726], the figures for the IC50 in series [1] and in series [2] were 4.8 nM and 1.8 nM, respectively.
`C[C@@H]1CN(C[C@H](c2cnc(NC(=O)[C@@H](NC(=O)C(F)(F)C3CC3)[C@H]3CC[C@H](C)CC3)s2)N2CC(F)(F)CNC2=O)C[C@@H](C)O1` [Example 727]: the IC50 was determined as 3.3 nM in series [1] and 1.2 nM in series [2].
For the compound `C[C@@H]1CN(C[C@H](c2cnc(NC(=O)[C@@H](NC(=O)C3(F)CC3)[C@H]3CC[C@H](C)CC3)s2)N2CC(F)(F)CNC2=O)[C@@H](C)CO1` [Example 731], the half-inhibitory concentration (IC50) in series [1] was found to be 6.6 nM. In series [2], this compound came in with a 50% inhibitory concentration (IC50) of 6 nM. In addition, in series [3], the AUC(0-t) worked out at 14300 ng·h/mL, the highest concentration (Cmax) is 1840 ng/mL, the time of peak concentration (Tmax) was found to be 2 h and the half-life is 2.3 h.
With `C[C@H]1CN(C[C@H](c2cnc(NC(=O)[C@@H](NC(=O)C3(F)CC3)[C@H]3CC[C@H](C)CC3)s2)N2CC(F)(F)CNC2=O)[C@@H](C)CO1` [Example 734], the half-inhibitory concentration (IC50) in series [1] stood at 2.9 nM; in series [2], 2 nM.
The compound `C[C@@H]1CN(C[C@H](c2cnc(NC(=O)[C@@H](NC(=O)C3(F)CC3)[C@H]3CC[C@H](C)CC3)s2)N2CC(F)(F)CNC2=O)[C@H](C)CO1` [Example 736, N-((S)-2-((5-((R)-1-(5,5-difluoro-2-oxotetrahydropyrimidin-1(2H)-yl)-2-((2R,5R)-2,5-dimethylmorpholino)ethyl)thiazol-2-yl)amino)-1-((1r,4S)-4-methylcyclohexyl)-2-oxoethyl)-1-fluorocyclopropane-1-carboxamide] displayed a concentration for half-maximal inhibition (IC50) in series [1] of 3.6 nM. This compound also yielded an IC50 in series [2] of 1 nM. Besides, in series [3], the AUC(0-t) was found to be 10800 ng·h/mL, the peak level (Cmax) was 1310 ng/mL, the Tmax is 2 h and the half-life was 2.4 h.
Regarding `CC1CCC(C(NC(=O)C2(F)CC2)C(=O)Nc2ncc(C(CN3C(C)COCC3C)N3CC(F)(F)CNC3=O)s2)CC1` (stereo not drawn) [Example 739], the concentration for half-maximal inhibition (IC50) in series [1] amounted to 5 nM. The same compound had a concentration for half-maximal inhibition (IC50) in series [2] of 3 nM. In series [3], the AUC(0-t) was determined as 10300 ng·h/mL, the maximum concentration (Cmax) is 1940 ng/mL, the time of peak concentration (Tmax) amounted to 2 h and the half-life is 2.5 h.
As to `C[C@H]1CC[C@H]([C@H](NC(=O)C2(F)CC2)C(=O)Nc2ncc([C@@H](CN3CCC(F)CC3)N3CC(F)(F)CNC3=O)s2)CC1` [Example 760], the IC50 in series [1] is 7 nM; in series [2] it was 5.7 nM.
With `C[C@H]1CC[C@H]([C@H](NC(=O)C2(F)CC2)C(=O)Nc2ncc([C@@H](CN3CCC(F)(F)CC3)N3CC(F)(F)CNC3=O)s2)CC1` [Example 763, N-((S)-2-((5-((R)-1-(5,5-difluoro-2-oxotetrahydropyrimidin-1(2H)-yl)-2-(4,4-difluoropiperidin-1-yl)ethyl)thiazol-2-yl)amino)-1-((1r,4S)-4-methylcyclohexyl)-2-oxoethyl)-1-fluorocyclopropane-1-carboxamide], in series [1], the IC50 was 6 nM. This compound also gave a half-inhibitory concentration (IC50) in series [2] of 4.5 nM. In series [3], the exposure AUC(0-t) worked out at 15900 ng·h/mL, the highest level (Cmax) was 1480 ng/mL, the Tmax was determined as 4 h and the half-life was 3.4 h.
`C[C@H]1CC(F)(F)CCN1C[C@H](c1cnc(NC(=O)[C@@H](NC(=O)C2(F)CC2)[C@H]2CC[C@H](C)CC2)s1)N1CC(F)(F)CNC1=O` [Example 764] displayed a half-inhibitory concentration (IC50) in series [1] of 7 nM. For the same compound, the concentration for half-maximal inhibition (IC50) in series [2] was 7 nM. In series [3], the area under the curve AUC(0-t) worked out at 11700 ng·h/mL, the Cmax came to 1090 ng/mL, the time of peak concentration (Tmax) was 4 h and the half-life is 4.1 h.
`C[C@H]1CC[C@H]([C@H](NC(=O)C2(F)CC2)C(=O)Nc2ncc([C@@H](CN3CCC(C(F)F)CC3)N3CC(F)(F)CNC3=O)s2)CC1` [Example 770] registered an IC50 in series [1] of 7 nM. Moreover, the IC50 in series [2] was 3.4 nM. Besides, in series [3], the exposure AUC(0-t) was determined as 11600 ng·h/mL, the concentration peaked (Cmax) at 1350 ng/mL, the time of peak concentration (Tmax) amounted to 4 h and the half-life was 3.5 h.
On to `COC1CCN(C[C@H](c2cnc(NC(=O)[C@@H](NC(=O)C3(F)CC3)[C@H]3CC[C@H](C)CC3)s2)N2CC(F)(F)CNC2=O)CC1` [Example 777], for which the figures for the concentration for half-maximal inhibition (IC50) in series [1] and in series [2] were 8 nM and 5.3 nM, respectively.
The matching figures for `[2H]C([2H])([2H])O[C@@H]1CCN(C[C@H](c2cnc(NC(=O)[C@@H](NC(=O)C3(F)CC3)[C@H]3CC[C@H](C)CC3)s2)N2CC(F)(F)CNC2=O)C[C@@H]1F` [Example 781]: 5 nM and 10 nM.
The like results for `[2H]C([2H])([2H])O[C@H]1CCN(C[C@H](c2cnc(NC(=O)[C@@H](NC(=O)C3(F)CC3)[C@H]3CC[C@H](C)CC3)s2)N2CC(F)(F)CNC2=O)C[C@H]1F` [Example 782] were, in that order, 4 nM and 4 nM.
In turn, `[2H]C([2H])([2H])OC1(C)CCN(C[C@H](c2cnc(NC(=O)[C@@H](NC(=O)C3(F)CC3)[C@H]3CC[C@H](C)CC3)s2)N2CC(F)(F)CNC2=O)CC1` [Example 787] returned a half-inhibitory concentration (IC50) in series [1] of 9 nM. This compound returned a 50% inhibitory concentration (IC50) in series [2] of 8.9 nM. Also, in series [3], the AUC(0-t) came out at 18800 ng·h/mL, the Cmax amounted to 2330 ng/mL, the time of peak concentration (Tmax) amounted to 2 h and the half-life was 2.4 h.
As to `C[C@@H]1CN(C[C@H](c2cnc(NC(=O)[C@@H](NC(=O)C3(F)CC3)[C@H]3CC[C@H](C)CC3)s2)N2CC(F)(F)CNC2=O)CCO1` [Example 1012, N-((S)-2-((5-((R)-1-(5,5-difluoro-2-oxotetrahydropyrimidin-1(2H)-yl)-2-((R)-2-methylmorpholino)ethyl)thiazol-2-yl)amino)-1-((1r,4S)-4-methylcyclohexyl)-2-oxoethyl)-1-fluorocyclopropane-1-carboxamide], the IC50 in series [1] came out at 6 nM. Further, 3 nM corresponded to half-maximal inhibition in series [2] (IC50). In series [3], the area under the curve AUC(0-t) turned out to be 14200 ng·h/mL, the peak level (Cmax) was 2220 ng/mL, the time to peak (Tmax) was 2 h and the half-life was 2.3 h.
For `C[C@H]1CN(C[C@H](c2cnc(NC(=O)[C@@H](NC(=O)C3(F)CC3)[C@H]3CC[C@H](C)CC3)s2)N2CC(F)(F)CNC2=O)CCO1` [Example 1013], the IC50 in series [1] and in series [2] was 9 nM each time.
Take `C[C@H]1COCCN1C[C@H](c1cnc(NC(=O)[C@@H](NC(=O)C2(F)CC2)[C@H]2CC[C@H](C)CC2)s1)N1CC(F)(F)CNC1=O` [Example 1014, N-((S)-2-((5-((R)-1-(5,5-difluoro-2-oxotetrahydropyrimidin-1(2H)-yl)-2-((S)-3-methylmorpholino)ethyl)thiazol-2-yl)amino)-1-((1r,4S)-4-methylcyclohexyl)-2-oxoethyl)-1-fluorocyclopropane-1-carboxamide]: the concentration for half-maximal inhibition (IC50) in series [1] amounted to 7 nM. Moreover, in series [2], the IC50 was 8 nM. Further, in series [3], the area under the curve AUC(0-t) turned out to be 12800 ng·h/mL, the highest level (Cmax) was 1670 ng/mL, the Tmax is 4 h and the half-life is 2.4 h.
As to `C[C@@H]1COCCN1C[C@H](c1cnc(NC(=O)[C@@H](NC(=O)C2(F)CC2)[C@H]2CC[C@H](C)CC2)s1)N1CC(F)(F)CNC1=O` [Example 1015], the half-maximal inhibitory concentration (IC50) is 4 nM in series [1] and 6 nM in series [2].
